Experiment: Radiolysis / stability of [18F]DCFPyL over time by HPLC with radiodetection (RCP, free 18F, radioactive impurities)
Format: physicochemical
Protocol: Those of ordinary skill in the art will be aware of techniques and systems for determining the radiochemical purity of a composition. In some cases, the radiochemical purity is determined using an HPLC associated with a radio-detector. Generally, the radiochemical purity is determined under ambient conditions (e.g., ambient temperature, ambient humidity, ambient light, etc.), such as in samples stored under such conditions.
Stability was assessed using reverse phase HPLC on a C18 column with a phosphate buffer/acetonitrile gradient mobile phase, and the elution profile was monitored using both UV and radiochemical detectors. Samples were analyzed either by direct injection onto the HPLC, dilution and injection or including the addition of tetraethylammonium fluoride (TEAF) into the sample before injection.
Known amounts of free ^18F either alone or spiked with TEAF were injected onto the analytic column and the eluent from the column collected over the course of a chromatogram and assaying the radioactivity using a Capintec. […] Adding TEAF into the analytic samples was incorporated into subsequent studies examining potential radiolysis of [^18F]DCFPyL to overcome some of the limitations of free ^18F quantification.
Analytical HPLC method was used. The method employs UV detection at 264 nm for chemical impurities, and an Eckert & Ziegler model B-FC-1000 gamma detector for radiochemical assays.

[1] = T = 1.5 hr, 20% ethanol in saline, 52 mCi/mL at EOS
[2] = T = 1.5 hr, 20% ethanol in saline, 65 mCi/mL at EOS
[3] = T = 1.5 hr, 20% ethanol in saline, 85 mCi/mL at EOS
[4] = T = 2 hr, 0.5 mg/mL ascorbic acid pH 5.8, 20% ethanol, 105.8 mCi/mL at EOS
[5] = T = 2 hr, 1 mg/mL ascorbic acid pH 5.8, 20% ethanol, 107.0 mCi/mL at EOS
[6] = T = 2 hr, 5 mg/mL ascorbic acid pH 5.8, 20% ethanol, 99.0 mCi/mL at EOS
[7] = T = 2 hr, 20 mg/mL sodium citrate, 20% ethanol, 104.8 mCi/mL at EOS
[8] = T = 2 hr, 50 mg/mL ascorbic acid pH 5.8, 20% ethanol, 139.7 mCi/mL at EOS
[9] = T = 2.0 hr, 50 mg/mL ascorbic acid pH 5.8 in final product vial, 20% ethanol, 110 mCi/mL at EOS
[10] = T = 2.0 hr, 100 mg/mL ascorbic acid pH 2.0, 256 mCi/mL at EOS
[11] = T = 2 hr, 20% ethanol in saline, 52 mCi/mL at EOS
[12] = T = 2 hr, 20% ethanol in saline, 65 mCi/mL at EOS
[13] = T = 2 hr, 20% ethanol in saline, 85 mCi/mL at EOS
[14] = T = 2 hr, 100% ethanol, 325 mCi/mL at EOS
[15] = T = 2 hr, control without ascorbic acid, 36% ethanol in saline, 147 mCi/mL at EOS
[16] = T = 2.5 hr, 50 mg/mL ascorbic acid pH 5.8 in final product vial, 20% ethanol, 110 mCi/mL at EOS

## O=C(O)CC[C@H](NC(=O)N[C@@H](CCCCNC(=O)c1ccc([18F])nc1)C(=O)O)C(=O)O [Lot 18F-DCFPyL, 2-(3-{1-carboxy-5-[(6-[18F]fluoro-pyridine-3-carbonyl)-amino]-pentyl}ureido)-pentanedioic acid]
T = 1.5 hr, 100 mg/mL ascorbic acid pH 2.0, 256 mCi/mL at EOS
  RT 12.2 radioactive impurity: 0.37%
[1]
  18F-DCFPyL (RCP): 98.70%
  Free F-18: 0.80%
  RT 5.0 radioactive impurity: 0.50%
[2]
  18F-DCFPyL (RCP): 95.78%
  Free F-18: 3.55%
  RT 5.0 radioactive impurity: 0.38%
  RT 5.9 radioactive impurity: 0.29%
[3]
  18F-DCFPyL (RCP): 95.06%
  Free F-18: 4.22%
  RT 5.0 radioactive impurity: 0.41%
  RT 5.9 radioactive impurity: 0.31%
[4]
  18F-DCFPyL (% RCP): 98.99%
  Free F-18: 1.01%
[5]
  18F-DCFPyL (% RCP): 98.88%
  Free F-18: 1.12%
T = 2 hr, 1 mg/mL sodium ascorbate, 20% ethanol, 111.5 mCi/mL at EOS
  Free F-18: 1.89%
[6]
  18F-DCFPyL (% RCP): 99.45%
  Free F-18: 0.55%
T = 2 hr, 5 mg/mL sodium ascorbate, 20% ethanol, 114.6 mCi/mL at EOS
  Free F-18: 0.89%
[7]
  Free F-18: 18.24%
  RT 3.4 radioactive impurity: 0.30%
  RT 3.7 radioactive impurity: 0.31%
[8]
  18F-DCFPyL (% RCP): 100.00%
  Free F-18: 0.00%
T = 2 hr, 50 mg/mL ascorbic acid pH 5.8, 20% ethanol, 139.7 mCi/mL at EOS, MPA = 0.25% of main peak
  RT 4.8 radioactive impurity: <MPA
[9]
  18F-DCFPyL (RCP): 99.67%
  RT 5.0 radioactive impurity: 0.33%
  RT 5.9 radioactive impurity: 0.24%
[10]
  18F-DCFPyL (RCP): 98.35%
  Free 18F: 0.31%
  RT 5.0 radioactive impurity: 0.35%
  RT 12.0 radioactive impurity: 0.52%
  RT 12.2 radioactive impurity: 0.47%
[11]
  18F-DCFPyL (RCP): 98.62%
  Free F-18: 0.91%
  RT 5.0 radioactive impurity: 0.47%
[12]
  18F-DCFPyL (RCP): 95.91%
  Free F-18: 3.78%
  RT 5.0 radioactive impurity: 0.31%
[13]
  18F-DCFPyL (RCP): 95.37%
  Free F-18: 4.00%
  RT 5.0 radioactive impurity: 0.39%
  RT 5.9 radioactive impurity: 0.24%
[14]
  18F-DCFPyL (RCP): 96.38%
  Free F-18: 3.62%
[15]
  18F-DCFPyL (RCP): 89.50%
  Free F-18: 8.67%
  RT 5.0 radioactive impurity: 0.77%
  RT 5.9 radioactive impurity: 1.05%
[16]
  18F-DCFPyL (RCP): 99.63%
  RT 5.0 radioactive impurity: 0.37%
  RT 5.9 radioactive impurity: 0.35%
